Data as given in publication PMC10584170, “Machine learning-based phenotypic imaging to characterise the targetable biology of Plasmodium falciparum male gametocytes for the development of transmission-blocking antimalarials” (PLOS Pathogens, 2023).

Tests used:
[1] = tested on: P. falciparum female gametocytes; assay: P. falciparum Dual Gamete Formation Assay (PfDGFA), female readout (Pfs25-positive female gametes); type: cell-based, Plasmodium falciparum NF54; settings: 2µM; for Average inhibition female (%) / % inhibition female (individual replicates) R1 / % inhibition female (individual replicates) R3 / % inhibition female (individual replicates) R4: 24h preincubation with gametocytes prior to induction of gametogenesis; for Average inhibition female (%): average of replicates; for % inhibition female (individual replicates) R1: replicate R1; for % inhibition female (individual replicates) R3: replicate R3; for % inhibition female (individual replicates) R4: replicate R4; for HitlevelF: 24h preincubation
Method in brief: (§1)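 Day-14 NF54 gametocytes were incubated with compound for 24 h at 37°C under 1% O2/3% CO2/96% N2. Gametogenesis was triggered with ookinete medium (0.1 μM xanthurenic acid) plus Cy3-anti-Pfs25, and exflagellation was imaged by brightfield after cooling to 4°C then 28°C. Females were imaged by Pfs25 fluorescence 24 h later at 28°C.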

[2] = tested on: P. falciparum male gametocytes; assay: P. falciparum Dual Gamete Formation Assay (PfDGFA), male readout (exflagellation); type: cell-based, Plasmodium falciparum NF54; settings: for Average inhibition male (%) / % inhibition male (individual replicates) R1 / % inhibition male (individual replicates) R3 / % inhibition male (individual replicates) R4 / HitlevelM: 2µM; for Average inhibition male (%) / % inhibition male (individual replicates) R1 / % inhibition male (individual replicates) R3 / % inhibition male (individual replicates) R4: 24h preincubation with gametocytes prior to induction of gametogenesis; for Average inhibition male (%): average of replicates; for % inhibition male (individual replicates) R1: replicate R1; for % inhibition male (individual replicates) R3: replicate R3; for % inhibition male (individual replicates) R4: replicate R4; for HitlevelM / Activity: 24h preincubation; for Activity: PfDGFA at 2µM, hit = >50% inhibition in male or female readout in at least 3 replicates, 0 = no class assigned
Method in brief: as §1

[3] = number of replicates with >50% inhibition in the female readout
[4] = number of replicates with >50% inhibition in the male readout
[5] = hits selected on >50% inhibition in the female readout across replicates
[6] = hits selected on >50% inhibition in the male readout across replicates

Cl.NCc1ccc(-c2ccc3c(N)nccc3c2)cc1 [TCMDC-133718]
Average inhibition female (%) [1]: 21.1% | % inhibition female (individual replicates) R1 [1]: 11.2% | % inhibition female (individual replicates) R3 [1]: 8.8% | % inhibition female (individual replicates) R4 [1]: 10.1% | HitlevelF [1, 3]: 1 | Average inhibition male (%) [2]: 18.4% | % inhibition male (individual replicates) R1 [2]: -0.6% | % inhibition male (individual replicates) R3 [2]: -25.8% | % inhibition male (individual replicates) R4 [2]: 49.6% | HitlevelM [2, 4]: 1

Cc1cccc(-c2cccc(CNc3nc(NCCc4ccc(O)cc4)nc(N4CCNCC4)n3)c2)c1.O=C(O)C(F)(F)F [TCMDC-133810]
Average inhibition female (%) [1]: 7.6% | % inhibition female (individual replicates) R1 [1]: 16.4% | % inhibition female (individual replicates) R3 [1]: -13.0% | % inhibition female (individual replicates) R4 [1]: 18.6% | HitlevelF [1, 5]: 0 | Average inhibition male (%) [2]: -4.6% | % inhibition male (individual replicates) R1 [2]: -4.0% | % inhibition male (individual replicates) R3 [2]: -16.3% | % inhibition male (individual replicates) R4 [2]: 16.2% | HitlevelM [2, 6]: 0 | Activity [2]: 0

CN1CCC(N2CCN(Cc3cccc(-c4ccc(-c5nc6cc(F)ccc6[nH]5)cc4)c3)CC2)CC1.O=C(O)C(F)(F)F [TCMDC-133858]
Average inhibition female (%) [1]: 6.0% | % inhibition female (individual replicates) R1 [1]: 1.0% | % inhibition female (individual replicates) R3 [1]: -3.8% | % inhibition female (individual replicates) R4 [1]: 20.5% | HitlevelF [1, 5]: 0 | Average inhibition male (%) [2]: 26.9% | % inhibition male (individual replicates) R1 [2]: 35.0% | % inhibition male (individual replicates) R3 [2]: -5.5% | % inhibition male (individual replicates) R4 [2]: 46.2% | HitlevelM [2, 6]: 0 | Activity [2]: 0

Cc1cccc2nc(-c3ccc(-c4ccc(CN5CCC(N)C5)cc4)s3)[nH]c12.O=C(O)C(F)(F)F (stereo not shown) [TCMDC-133862]
Average inhibition female (%) [1]: 4.0% | % inhibition female (individual replicates) R1 [1]: 5.8% | % inhibition female (individual replicates) R3 [1]: 5.7% | % inhibition female (individual replicates) R4 [1]: 2.9% | HitlevelF [1, 5]: 0 | Average inhibition male (%) [2]: -1.0% | % inhibition male (individual replicates) R1 [2]: -13.8% | % inhibition male (individual replicates) R4 [2]: 7.3% | HitlevelM [2, 6]: 0 | Activity [2]: 0

Cc1cccc2nc(-c3ccc(-c4ccc(CN5CCN(C6CCN(C)CC6)CC5)cc4)s3)[nH]c12.O=C(O)C(F)(F)F [TCMDC-133866]
Average inhibition female (%) [1]: 32.5% | % inhibition female (individual replicates) R1 [1]: 26.9% | % inhibition female (individual replicates) R3 [1]: 41.8% | % inhibition female (individual replicates) R4 [1]: 27.5% | HitlevelF [1, 3]: 0 | Average inhibition male (%) [2]: 12.4% | % inhibition male (individual replicates) R1 [2]: 12.8% | % inhibition male (individual replicates) R3 [2]: 24.6% | % inhibition male (individual replicates) R4 [2]: 21.2% | HitlevelM [2, 4]: 0

NC1CCN(Cc2ccc(-c3ccc(-c4nc5ccccc5[nH]4)cc3)cc2)C1.O=C(O)C(F)(F)F (stereo not shown) [TCMDC-133868]
Average inhibition female (%) [1]: 15.3% | % inhibition female (individual replicates) R1 [1]: 0.6% | % inhibition female (individual replicates) R3 [1]: -10.8% | % inhibition female (individual replicates) R4 [1]: 34.5% | HitlevelF [1, 3]: 0 | Average inhibition male (%) [2]: 53.2% | % inhibition male (individual replicates) R1 [2]: 65.7% | % inhibition male (individual replicates) R3 [2]: 18.3% | % inhibition male (individual replicates) R4 [2]: 71.6% | HitlevelM [2, 4]: 3

NC1CCN(Cc2ccc(-c3ccc(-c4nc5cc(F)ccc5[nH]4)cc3)cc2)C1.O=C(O)C(F)(F)F (stereo not shown) [TCMDC-133872]
Average inhibition female (%) [1]: 9.7% | % inhibition female (individual replicates) R1 [1]: 21.7% | % inhibition female (individual replicates) R3 [1]: 5.5% | % inhibition female (individual replicates) R4 [1]: 3.9% | HitlevelF [1, 5]: 0 | Average inhibition male (%) [2]: 30.9% | % inhibition male (individual replicates) R1 [2]: 32.1% | % inhibition male (individual replicates) R3 [2]: 18.9% | % inhibition male (individual replicates) R4 [2]: 53.6% | HitlevelM [2, 6]: 1 | Activity [2]: 0
